These results are taken from patent US7592373B2 (Boehringer Ingelheim International GmbH, priority 2003, dated 2009).

Structures can show the parent of a compound that is named as a salt.

The melting point is the temperature, or range, at which the solid turns liquid. Turning to `O=C(CCc1ccc(CN2CC[C@H](O)C2)cc1)Nc1ccc(-c2ccc(Cl)cc2)cc1` [Example 6.7, N-(4′-chlorobiphenyl-4-yl)-3-[4-((S)-3-hydroxypyrrolidin-1-ylmethyl)phenyl]propionamide], the melting point lay in the range of 171 to 172 °C.

For the molecule `O=C(C#Cc1ccc(CN2CCCC2)cc1)Nc1ccc(-c2ccc(Cl)cc2)cc1F` [Example 1.17, 3-(4-pyrrolidin-1-ylmethylphenyl)propynoic acid-(4′-chloro-3-fluorobiphenyl-4-yl)amide], the melting point stood at 136 °C.

`CN(Cc1ccc(CCC(=O)Nc2ccc(-c3ccc(Cl)cc3)cc2)cc1)CC1CC1` [Example 6.13, N-(4′-chlorobiphenyl-4-yl)-3-{4-[(cyclopropylmethylmethylamino)methyl]phenyl}propionamide] had a melting point of 156 °C.

`COc1ccc(-c2ccc(NC(=O)CCc3ccc(CN4CCCC4)cc3)cc2)cc1` [Example 6.1, N-(4′-methoxybiphenyl-4-yl)-3-(4-pyrrolidin-1-ylmethylphenyl)propionamide] gave a melting point of 185 to 188 °C.

`COc1cc(NC(=O)C#Cc2ccc(C(F)(F)F)cc2Cl)ccc1OCCN1CCc2ccccc2C1` (as salt: formate) [Example 4.275, 3-(2-chloro-4-trifluoromethylphenyl)propynoic acid-{4-[2-(3,4-dihydro-1H-isoquinolin-2-yl)ethoxy]-3-methoxyphenyl}amide formate]: the melting point was in the range of 92 to 95 °C.

Turning to `CN(CCOc1ccccc1)Cc1ccc(CCC(=O)Nc2ccc(-c3ccc(Cl)cc3)cc2)cc1` [Example 6.20, N-(4′-chlorobiphenyl-4-yl)-3-(4-{[methyl-(2-phenoxyethyl)amino]methyl}phenyl)propionamide], the melting point lay within 122 to 124 °C.

The molecule `O=C(/C=C/c1ccc(CN2CCCC2)cc1)Nc1ccc(-c2ccc(Cl)cc2)cc1` [Example 5.13, (E)-N-(4′-chlorobiphenyl-4-yl)-3-(4-pyrrolidin-1-ylmethylphenyl)acrylamide] gave a melting point of 219 °C.

`CN(Cc1ccc(/C=C/C(=O)Nc2ccc(-c3ccc(Cl)cc3)cc2)cc1)C1CCNCC1` (as salt: acetate) [Example 5.36, (E)-N-(4′-chlorobiphenyl-4-yl)-3-{4[(methylpiperidin-4-ylamino)methyl]phenyl}acrylamide×trifluoroacetic acid acetate] had a melting point of 207 to 208 °C.

As for `O=C(C#Cc1ccc(C(F)(F)F)cc1Cl)Nc1ccc(CN2CCCCC2)cc1` (as salt: hydrochloride) [Example 3.41, 3-(2-chloro-4-trifluoromethylphenyl)propynoic acid(4-piperidin-1-ylmethylphenyl)amide hydrochloride], the melting point lay in the range of 193 to 195 °C.

In turn, `CC(C)(O)C1CCN(Cc2ccc(C#CC(=O)Nc3ccc(-c4ccc(Cl)cc4)cc3)cc2)CC1` [Example 1.34, 3-{4-[4-(1-hydroxy-1-methylethyl)piperidin-1-ylmethyl]phenyl}propynoic acid-(4′-chlorobiphenyl-4-yl)amide] registered a melting point of 194 to 195 °C.

For the molecule `O=C(C#Cc1ccc(CN2CCC(N3CCCC3)CC2)cc1)Nc1ccc(-c2ccc(Cl)cc2)cc1` [Example 1.38], the melting point is 191 to 192 °C.

`CCN(CC)CCCOc1ccc(NC(=O)C#Cc2ccc(C(F)(F)F)cc2Cl)cc1Cl` (as salt: formate) [Example 4.18, 3-(2-chloro-4-trifluoromethylphenyl)propynoic acid-[3-chloro-4-(3-diethylaminopropoxy)phenyl]amide formate] gave a melting point of 112 to 116 °C.

`COc1cc(NC(=O)C#Cc2ccc(C(F)(F)F)cc2Cl)ccc1OCCN1CCC(C)CC1` [Example 4.270, 3-(2-chloro-4-trifluoromethylphenyl)propynoic acid-{3-methoxy-4-[2-(4-methylpiperidin-1-yl)ethoxy]phenyl}amide] displayed a melting point of 207 to 209 °C.

`CN(Cc1ccc(CCC(=O)Nc2ccc(-c3ccc(Cl)cc3)cc2)cc1)C1CCOCC1` [Example 6.12, N-(4′-chlorobiphenyl-4-yl)-3-(4-{[methyl-(tetrahydropyran-4-yl)amino]methyl}phenyl)propionamide] gave a melting point of 167 to 173 °C.

The molecule `COCCN(C)Cc1ccc(/C=C/C(=O)Nc2ccc(-c3ccc(Cl)cc3)cc2)cc1` [Example 5.14] gave a melting point of 222 to 223 °C.

On to `CC1CCC(N(C)Cc2ccc(/C=C/C(=O)Nc3ccc(-c4ccc(Cl)cc4)cc3)cc2)CC1` (centres unmarked) [Example 5.29, (E)-N-(4′-chlorobiphenyl-4-yl)-3-(4-{[methyl-(4-methylcyclohexyl)amino]methyl}phenyl)acrylamide], for which the melting point was in the range of 227 to 258 °C.

Molecule `CN(Cc1ccc(/C=C/C(=O)Nc2ccc(-c3ccc(Cl)cc3)cc2)cc1)CC1CC1` [Example 5.17, (E)-N-(4′-chlorobiphenyl-4-yl)-3-{4-[(cyclopropylmethylmethylamino)methyl]phenyl}acrylamide] came in with a melting point of 246 to 247 °C.

On to `CCN(CC)CCc1ccc(NC(=O)C#Cc2ccc(Cl)cc2Cl)cc1` (as salt: hydrochloride) [Example 3.34, 3-(2,4-dichlorophenyl)propynoic acid-[4-(2-diethylaminoethyl)phenyl]amide hydrochloride], for which the melting point lay in the range of 204 to 208 °C.

On to `CC1CN(Cc2ccc(CCC(=O)Nc3ccc(-c4ccc(Cl)cc4)cc3)cc2)CC(C)O1` (centres unmarked) [Example 6.21, N-(4′-chlorobiphenyl-4-yl)-3-[4-(2,6-dimethylmorpholin4-ylmethyl)phenyl]propionamide], for which the melting point was in the range of 158.5 to 160.5 °C.

For `O=C(C#Cc1ccc(Cl)cc1)Nc1ccc2c(ccn2CCN2CCCC2)c1` [Example 4.9, 3-(4-chlorophenyl)propynoic acid-[1-(2-pyrrolidin-1-ylethyl)-1H-indol-5-yl]amide], the melting point lay in the range of 135 to 144 °C.

`O=C(CCc1ccc(CNC2CCCCC2)cc1)Nc1ccc(-c2ccc(Cl)cc2)cc1` [Example 6.39, N-(4′-chlorobiphenyl-4-yl)-3-(4-cyclohexylaminomethylphenyl)propionamide] returned a melting point of 208 °C.

For `O=C(CCc1ccc(CN2CCC[C@@H]2CO)cc1)Nc1ccc(-c2ccc(Cl)cc2)cc1` [Example 6.8, N-(4′-chlorobiphenyl-4-yl)-3-[4-((R)-2-hydroxymethylpyrrolidin-1-ylmethyl)phenyl]propionamide], the melting point was 156 to 157 °C.

Consider `CC1CC(C)CN(Cc2ccc(NC(=O)C#Cc3ccc(-c4ccc(Cl)cc4)cc3)cc2)C1` (centres unmarked) [Example 3.12, 3-(4′-chlorobiphenyl-4-yl)propynoic acid-[4-(3,5-dimethylpiperidin-1-ylmethyl)phenyl]amide], for which the melting point was 209 to 214 °C.

`CC1CCN(CCOc2ccc(NC(=O)C#Cc3ccc(C(F)(F)F)cc3Cl)cc2)CC1` (as salt: hydrochloride) [Example 3.45, 3-(2-chloro-4-trifluoromethylphenyl)propynoic acid {4-[2-(4-methylpiperidin-1-yl)ethoxy]phenyl}amide hydrochloride] had a melting point of 240 to 245 °C.

The molecule `CCN(CC)CCOc1ccc(NC(=O)C#Cc2ccc(-c3ccccc3)cc2)cc1Cl` [Example 4.4, 3-biphenyl-4-ylpropynoic acid-[3-chloro-4-(2-diethylaminoethoxy)phenyl]amide] returned a melting point of 105 to 108 °C.

`NC(=O)C1CCN(Cc2ccc(/C=C/C(=O)Nc3ccc(-c4ccc(Cl)cc4)cc3)cc2)CC1` [Example 5.6, 1-{4-[(E)-2-(4′-chlorobiphenyl-4-ylcarbamoyl)vinyl]benzyl}piperidine-4-carboxylic acid amide] had a melting point of 254 to 255 °C.

In turn, `COC1CCN(Cc2ccc(C#CC(=O)Nc3ccc(-c4ccc(Cl)cc4)cc3)cc2)CC1` [Example 1.36, 3-[4-(4-methoxypiperidin-1-ylmethyl)phenyl]propynoic acid-(4′-chlorobiphenyl-4-yl)amide] displayed a melting point of 145 to 146 °C.

For `O=C(C#Cc1ccc(-c2ccc(Cl)cc2)cc1)Nc1ccc2c(ccn2CCN2CCCC2)c1` [Example 3.19, 3-(4′-chlorobiphenyl-4-yl)propynoic acid-[1-(2-pyrrolidin-1-ylethyl)-1H-indol-5-yl]amide], the melting point lay within 224 to 227 °C.

Turning to `CCN(CC)CCOc1ccc(NC(=O)C#Cc2ccc(-c3ccc(Cl)cc3)cc2)cc1Cl.Cl`, the melting point lay within 226 to 233 °C.

`O=C(CCc1ccc(CN2CC[C@@H](O)C2)cc1)Nc1ccc(-c2ccc(Cl)cc2)cc1` [Example 6.29, N-(4′-chlorobiphenyl-4-yl)-3-[4-((R)-3-hydroxypyrrolidin-1-ylmethyl)phenyl]propionamide] had a melting point of 169 to 170 °C.

Consider `COc1cc(NC(=O)C#Cc2ccc(C(F)(F)F)cc2Cl)ccc1OCCN1C(C)CCCC1C` (centres unmarked) [Example 4.277, 3-(2-chloro-4-trifluoromethylphenyl)propynoic acid-{4-[2-(2,6-dimethylpiperidin-1-yl)ethoxy]-3-methoxyphenyl}amide], for which the melting point is 225 to 227 °C.

Take `O=C(C#Cc1ccc(-c2ccc(Cl)cc2)cc1)Nc1ccc(CN2CCCCC2)c(Cl)c1` [Example 3.20, 3-(4′-chlorobiphenyl-4-yl)propynoic acid-(3-chloro-4-piperidin-1-ylmethylphenyl)amide]: the melting point lay within 277 to 281 °C.

In turn, `O=C(/C=C/c1ccc(CN2CCC(CO)CC2)cc1)Nc1ccc(-c2ccc(Cl)cc2)cc1` [Example 5.8, (E)-N-(4′-chlorobiphenyl-4-yl)-3-[4-(4-hydroxymethylpiperidin-1-ylmethyl)phenyl]acrylamide] came in with a melting point of 190 to 191 °C.

For the molecule `CCN(CC)CCOc1ccc(NC(=O)C#Cc2ccc(Cl)cc2Cl)cc1OC` (as salt: hydrochloride) [Example 4.7, 3-(2,4-dichlorophenyl)propynoic acid-[3-methoxy-4-(2-diethylaminoethoxy)phenyl]amide hydrochloride], the melting point fell in the range of 205 to 207 °C.

On to `CCN(CC)CCc1ccc(NC(=O)C#Cc2ccc(C(F)(F)F)cc2Cl)cc1` [Example 3.35, 3-(2-chloro-4-trifluoromethylphenyl)propynoic acid-[4-(2-diethylaminoethyl)phenyl]amide], for which the melting point was in the range of 145 to 150 °C.
